What was measured:
LNCaP tumors = test: Radiation dosimetry calculation, unit density sphere model; parameters: species or system mice
Protocol: (§1) Internal dosimetry estimates were calculated using the organ level internal dose assessment (OLINDA) software v.2.0.^37 These estimates were performed for the mouse using the 25 g MOBY phantom,^38 for humans using the NURBS model for the adult male,^39 and for the tumors using the previously reported unit density sphere model.^40 All the phantoms and the sphere model are available in OLINDA and require the input of the total number of decays normalized by injected activity in units of MBq×h/MBq for each of the source organ/tumor.
Lastly, the numbers of decays in the tumors were also calculated based on the biodistribution data of the mice and the values were inputted into the sphere model available in OLINDA.

[1] = Radiation dosimetry calculation (OLINDA), 25-g mouse
Protocol: 1.18 Radiation Dosimetry Calculation
as §1
The biodistribution data (available in the Tables 1 and 2, below) was used to determine the kinetics input values required by OLINDA. First, each of the values was decayed to its corresponding time point (the values on the table are shown at injection time). Then the different time-points of the uptake data (% ID/g) for each organ were fitted to both mono-exponential
functions using in-house software developed in Python. The best fit was selected based on maximizing the coefficient of determination (R2) of the fit and minimizing the residuals. The areas under the curves were analytically calculated based on the parameters obtained from the best fit of each organ and this provided the kinetic input values required by OLINDA.
In the mouse case, the adrenals, blood, fat, muscle, and seminal vesicles are not modeled in the phantom. These organs were grouped together and included in what OLINDA calls the remainder of the body.

LNCaP tumor-bearing mice = test: Endoradiotherapy study; format: in vivo; details: for Median survival: n=8
Protocol: (§2) SPECT/CT imaging and biodistribution were performed using NOD-scid IL2Rgammanu^null (NSG) male mice, and the endoradiotherapy study was conducted using NOD.Cg-Rag1^tm1MomII2rg^tm1WjI/SzJ (NRG) male mice. The mice were maintained and the experiments were conducted in according to the guidelines established by the Canadian Council on Animal Care and approved by Animal Ethics Committee of the University of British Columbia. Mice were anesthetized by inhalation with 2% isoflurane in oxygen, and implanted subcutaneously with 1×10^7 LNCaP cells posterior to the left shoulder. Mice were used for studies when the tumor reached 5-8 mm in diameter 5-6 weeks after inoculation.
For radiotherapy study, tumor-bearing mice were injected with saline (the control group), ^177Lu-PSMA-617 (18.5 MBq) or ^177Lu-HTK01169 (18.5, 9.3, 4.6, or 2.3 MBq) (n=8 per group). Tumor size and body weight were measured twice a week from the date of injection (Day 0) until completion of the study (Day 120). Endpoint criteria were defined as >20% weight loss, tumor volume >1000 mm^3, or active ulceration of the tumor.

[2] = test system: mice bearing LNCaP tumor xenografts; test: SPECT/CT imaging of 177Lu-labeled compounds; format: in vivo; details: for size of LNCaP tumor xenografts over time: injection of about 37 MBq, SPECT/CT
Protocol: as §2
SPECT/CT imaging experiments were conducted using the MILabs (Utrecht, the Netherlands) U-SPECT-II/CT scanner. Each tumor-bearing mouse was injected with ≠37 MBq of ^177Lu-labeled PSMA-617 or HTK01169 through the tail vein under anesthesia (2% isoflurane in oxygen). The mice were allowed to recover and roam freely in their cage and imaged at 4, 24, 72 and 120 hours after injection. At each time point, the mice were sedated again and positioned in the scanner. A 5-min CT scan was conducted first for anatomical reference with a voltage setting at 60 kV and current at 615 μA followed by a 60-min static emission scan acquired in list mode using an ultra-high resolution multi-pinhole rat-mouse (1 mm pinhole size) collimator. Data were reconstructed using the U-SPECT II software with a 20% window width on three energy windows. The photopeak window was centered at 208 keV, with lower scatter and upper scatter windows centered at 170 and 255 keV, respectively. The images were reconstructed using the ordered subset expectation maximization algorithm (3 iterations, 16 subsets), and a 0.5 mm post-processing Gaussian filter. Images were decay corrected to injection time in PMOD (PMOD Technologies, Switzerland) then converted to DICOM for qualitative visualization in the Inveon Research Workplace software (Siemens Medical Solutions USA, Inc.).

[3] = Radiation dosimetry calculation (OLINDA), extrapolated to humans (male); parameters: species or system human
Protocol: as §1
Extrapolation of the mice biodistribution data to humans was performed using the method proposed by Kirschner et al.^41 and shown in the following equation: […]
Where morgan is the mass of the organ and M represents the total body mass. The subscripts indicate whether the values correspond to human or mouse. Masses for the organs and total body weight were taken from the simulated masses of the phantoms in OLINDA. […] The % ID/g of the blood was assumed to be the one for the heart contents of the phantom. This value was also used to calculate the bone marrow uptake based on the method described by Wessels et al.^42 in which we assumed a hematocrit fraction of 0.40 based on the patient values shown on that study. At the end, red marrow values used the blood measurements scaled by a factor of 0.32. In the human case, the fat, muscle, and seminal vesicles that are present in the biodistribution data are not modelled in the phantom so the numbers of decays present in these regions were included in the remainder of the body. The data was again fitted as for the mouse case and the values for the total number of decays in units of MBq×h/MBq were inputted in OLINDA.

[4] = source organ Large intestine contents
[5] = source organ Remainder of the body
[6] = source organ Urinary bladder contents
[7] = source organ Adrenals, human male
[8] = source organ Cortical bone, human male
[9] = source organ Heart contents, human male
[10] = source organ Heart wall, human male
[11] = source organ Kidneys, human male
[12] = source organ Left colon, human male
[13] = source organ Pancreas, human male
[14] = source organ Rectum, human male
[15] = source organ Red marrow, human male
[16] = source organ Remainder of the body, human male
[17] = source organ Right colon, human
[18] = source organ Small Intestine, human
[19] = source organ Spleen, human male
[20] = source organ Stomach contents, human male
[21] = source organ Testes, human male
[22] = source organ Urinary bladder contents, human male

## O=C([O-])CN1CCN(CC(=O)[O-])CCN(CC(=O)NCCCC[C@H](NC(=O)[C@H](CCC(=O)O)NC(=O)CCCc2ccc(I)cc2)C(=O)NC[C@H]2CC[C@H](C(=O)N[C@@H](Cc3ccc4ccccc4c3)C(=O)NCCCC[C@H](NC(=O)N[C@@H](CCC(=O)O)C(=O)O)C(=O)O)CC2)CCN(CC(=O)[O-])CC1.[177Lu+3] [^177Lu-HTK01169]
LNCaP tumors
  kinetic uptake value used as input in OLINDA: 31.72 MBq-h/MBq
[1]; source organ Brain
  Kinetics value: 3.21E−02 MBq-h/MBq
[1]; source organ Cortical bone
  Kinetics value: 5.48E−01 MBq-h/MBq
[1]; source organ Heart contents
  Kinetics value: 1.66E−01 MBq-h/MBq
[1]; source organ Kidneys
  Kinetics value: 1.94E+01 MBq-h/MBq
[1]; [4]
  Kinetics value: 2.25E−01 MBq-h/MBq
[1]; source organ Liver
  Kinetics value: 1.41E+00 MBq-h/MBq
[1]; source organ Lungs
  Kinetics value: 1.28E−01 MBq-h/MBq
[1]; source organ Pancreas
  Kinetics value: 1.30E−01 MBq-h/MBq
[1]; [5]
  Kinetics value: 1.73E+01 MBq-h/MBq
[1]; source organ Small intestine
  Kinetics value: 6.73E−01 MBq-h/MBq
[1]; source organ Spleen
  Kinetics value: 4.38E−01 MBq-h/MBq
[1]; source organ Stomach contents
  Kinetics value: 1.54E−02 MBq-h/MBq
[1]; source organ Testes
  Kinetics value: 1.66E−01 MBq-h/MBq
[1]; [6]
  Kinetics value: 6.02E−01 MBq-h/MBq
LNCaP tumor-bearing mice; 2.3-18.5 MBq
  change of tumor size over time, dependence on injected radioactivity: higher radioactivity leading to more effective and prolonged tumor growth inhibition
LNCaP tumor-bearing mice; 2.3 MBq injected
  Median survival: 28 days
LNCaP tumor-bearing mice; 4.6 MBq injected
  Median survival: 61 days
LNCaP tumor-bearing mice; 9.3 MBq injected
  Median survival: 103 days
LNCaP tumor-bearing mice; 18.5 MBq
  survival until end of study (Day 120): survived until the end of the study
LNCaP tumor-bearing mice; 18.5 MBq injected
  Median survival: >120 days
LNCaP tumor-bearing mice; mouse, in vivo
  administered activity needed for similar treatment efficacy, relative to 177Lu-PSMA-617: only a quarter
[2]; SPECT/CT images
  excretion pathway: excreted mainly via the renal pathway
[2]; SPECT/CT images, compared with 177Lu-PSMA-617
  tumor uptake (qualitative): Higher and sustained tumor uptake
[2]; SPECT/CT images, early time points (4 and 24 h), compared with 177Lu-PSMA-617
  renal retention (qualitative): higher renal retention
[2]
  size of LNCaP tumor xenografts over time: quick reduction in size
[3]; [7]
  Kinetics value: 1.55E−02 MBq-h/MBq
[3]; source organ Brain, human male
  Kinetics value: 3.42E−02 MBq-h/MBq
[3]; [8]
  Kinetics value: 1.03E−02 MBq-h/MBq
[3]; [9]
  Kinetics value: 3.16E−01 MBq-h/MBq
[3]; [10]
  Kinetics value: 7.97E−02 MBq-h/MBq
[3]; [11]
  Kinetics value: 6.81E+00 MBq-h/MBq
[3]; [12]
  Kinetics value: 1.99E−02 MBq-h/MBq
[3]; source organ Liver, human male
  Kinetics value: 4.98E−01 MBq-h/MBq
[3]; source organ Lungs, human male
  Kinetics value: 6.03E−01 MBq-h/MBq
[3]; [13]
  Kinetics value: 2.05E−02 MBq-h/MBq
[3]; [14]
  Kinetics value: 9.27E−03 MBq-h/MBq
[3]; [15]
  Kinetics value: 2.46E−01 MBq-h/MBq
[3]; [16]
  Kinetics value: 1.21E+01 MBq-h/MBq
[3]; [17]
  Kinetics value: 1.99E−02 MBq-h/MBq
[3]; [18]
  Kinetics value: 8.61E−02 MBq-h/MBq
[3]; [19]
  Kinetics value: 2.03E−01 MBq-h/MBq
[3]; [20]
  Kinetics value: 1.44E−02 MBq-h/MBq
[3]; [21]
  Kinetics value: 1.25E−02 MBq-h/MBq
[3]; [22]
  Kinetics value: 1.72E−01 MBq-h/MBq

## O=C([O-])CN1CCN(CC(=O)[O-])CCN(CC(=O)NCC2CCC(C(=O)N[C@@H](Cc3ccc4ccccc4c3)C(=O)NCCCC[C@H](NC(=O)N[C@@H](CCC(=O)O)C(=O)O)C(=O)O)CC2)CCN(CC(=O)[O-])CC1.[177Lu+3] (some centres unmarked) [^177Lu-PSMA-617, reference compound]
LNCaP tumors
  kinetic uptake value used as input in OLINDA: 3.80 MBq-h/MBq
[1]; source organ Brain
  Kinetics value: 6.96E−03 MBq-h/MBq
[1]; source organ Cortical bone
  Kinetics value: 9.96E−02 MBq-h/MBq
[1]; source organ Heart contents
  Kinetics value: 4.21E−03 MBq-h/MBq
[1]; source organ Kidneys
  Kinetics value: 1.13E+00 MBq-h/MBq
[1]; [4]
  Kinetics value: 1.74E−02 MBq-h/MBq
[1]; source organ Liver
  Kinetics value: 6.54E−02 MBq-h/MBq
[1]; source organ Lungs
  Kinetics value: 5.10E−03 MBq-h/MBq
[1]; source organ Pancreas
  Kinetics value: 5.44E−03 MBq-h/MBq
[1]; [5]
  Kinetics value: 6.82E−01 MBq-h/MBq
[1]; source organ Small intestine
  Kinetics value: 5.20E−02 MBq-h/MBq
[1]; source organ Spleen
  Kinetics value: 1.50E−02 MBq-h/MBq
[1]; source organ Stomach contents
  Kinetics value: 5.42E−03 MBq-h/MBq
[1]; source organ Testes
  Kinetics value: 4.96E−03 MBq-h/MBq
[1]; [6]
  Kinetics value: 1.10E+00 MBq-h/MBq
LNCaP tumor-bearing mice; 18.5 MBq
  change of tumor size over time: shrank initially but grew back later
LNCaP tumor-bearing mice; 18.5 MBq injected
  Median survival: 58 days
[2]; SPECT/CT images
  excretion pathway: excreted mainly via the renal pathway
[2]
  size of LNCaP tumor xenografts over time: quick reduction in size
[3]; [7]
  Kinetics value: 1.00E−03 MBq-h/MBq
[3]; source organ Brain, human male
  Kinetics value: 6.71E−03 MBq-h/MBq
[3]; [8]
  Kinetics value: 5.30E−03 MBq-h/MBq
[3]; [9]
  Kinetics value: 4.29E−03 MBq-h/MBq
[3]; [10]
  Kinetics value: 2.02E−03 MBq-h/MBq
[3]; [11]
  Kinetics value: 3.98E−01 MBq-h/MBq
[3]; [12]
  Kinetics value: 1.53E−03 MBq-h/MBq
[3]; source organ Liver, human male
  Kinetics value: 2.32E−02 MBq-h/MBq
[3]; source organ Lungs, human male
  Kinetics value: 2.41E−02 MBq-h/MBq
[3]; [13]
  Kinetics value: 8.55E−04 MBq-h/MBq
[3]; [14]
  Kinetics value: 7.16E−04 MBq-h/MBq
[3]; [15]
  Kinetics value: 3.15E−03 MBq-h/MBq
[3]; [16]
  Kinetics value: 5.39E−01 MBq-h/MBq
[3]; [17]
  Kinetics value: 1.53E−03 MBq-h/MBq
[3]; [18]
  Kinetics value: 6.65E−03 MBq-h/MBq
[3]; [19]
  Kinetics value: 6.93E−03 MBq-h/MBq
[3]; [20]
  Kinetics value: 5.06E−03 MBq-h/MBq
[3]; [21]
  Kinetics value: 3.72E−04 MBq-h/MBq
[3]; [22]
  Kinetics value: 3.15E−01 MBq-h/MBq

— patent publication US20200339625A1, “NOVEL RADIOMETAL-BINDING COMPOUNDS FOR DIAGNOSIS OR TREATMENT OF PROSTATE SPECIFIC MEMBRANE ANTIGEN-EXPRESSING CANCER” (PROVINCIAL HEALTH SERVICES AUTHORITY, priority 2017, published 2020)
